Test results published in patent publication US8557859B2, “Immunomodulatory compositions” (Summit (Wales) Limited, priority 2003, dated 2013).

Assays:
[1] = tested on: HSV-1 (SC16); assay: Treatment of murine HSV-1 infection: ear pinna thickness; type: in vivo, BALB/c mice; conditions: result in words; casuarine at both doses (15 and 150 mg/kg i.p.); famciclovir via drinking water 1 mg/ml
[2] = tested on: Na^+-dependent D-glucose uptake into ovine intestinal brush border membrane vesicles; assay: Effect on glucose transport (competition assay with labelled D-glucose); type: biochemical
[3] = tested on: α-D-glucosidase; assay: Glycosidase inhibition, α-D-glucosidase (Bacillus); type: biochemical, Bacillus stearothermophilus; conditions: 1 mg/ml
Protocol: (§1) All enzymes were purchased from Sigma, as were the appropriate p-nitrophenyl substrates. Assays were carried out in microtitre plates. Enzymes were assayed in 0.1 M citric acid/0.2M di-sodium hydrogen phosphate (McIlvaine) buffers at the optimum pH for the enzyme. All assays were carried out at 20° C. For screening assays the incubation assay consisted of 10 μl of enzyme solution, 10 μl of inhibitor solution (made up in water) and 50 μl of the appropriate 5 mM p-nitrophenyl substrate (3.57 mM final conc.) made up in McIlvaine buffer at the optimum pH for the enzyme.
(§2) The reactions were stopped with 0.4M glycine (pH 10.4) during the exponential phase of the reaction, which was determined at the beginning of the assay using blanks with water, which were incubated for a range of time periods to measure the reaction rate using 5 mM substrate solution. Endpoint absorbances were read at 405 nm with a Biorad microtitre plate reader (Benchmark). Water was substituted for the inhibitors in the blanks.

[4] = tested on: B16-F10 tumour cells; assay: Control of lung metastasis in mice; type: in vivo, Mice (C57/bl6); conditions: 50 mg/kg s/c on days 2 and 4; lungs on day 14
Protocol: Mice (C57/bl6 under i/p ketamine anaesthesia) were challenged i/v (tail vein) with 5×10^4 B16-F10 tumour cells in a final volume of 100 μl per mouse on day 0. Test compounds (50 mg/kg in 200 μl sterile non-pyrogenic saline) were administered s/c (right flank) on days 2 and 4. On day 14 the mice were sacrifices and the lungs dissected and stained in Indian ink solution (150 ml bidistilled water, 30 ml India Ink, 4 drops NH4OH) for 10 minutes then fixed for at least 24 hr in Fakete's solution (90 ml 37% formaldehyde, 900 ml 70% EtOH and 45 ml glacial acetic acid). The metastases in the stained and fixed lungs could then be visualized, counted and photographed.

[5] = tested on: Dendritic cells; assay: Induction of IL-12 secretion in dendritic cells (ELISA); type: cell-based, BALB/c mice; conditions: dendritic cells; compounds 50 μg/ml and 20 μg/ml, 24 hrs (or 48 hrs)
Protocol: BALB/c male and female mice bred and maintained at the University of Strathclyde under conventional conditions were used at 8 weeks old.
Bone marrow was obtained from the femurs of mice. The femurs were washed in 70% ethanol and placed in a clean petri dish. Dendritic cell (DC) medium (2.5% granulocyte-macrophage colony-stimulating factor (GM-CSF), 10% […] foetal calf serum, 1% L-glutamine, 1% Penicillin/Streptomycin in RPMI-1640 medium) was injected into the bone marrow of the femur by a pumping action and the cells and medium were collected. 1 ml of the cells in medium was added to a 75 cm^2 flask with 15 mls of DC medium. The flasks were then incubated at 37° C., 5% CO2 to allow DC growth and development. After 5 days an additional 10 mls of DC medium was added.
After 10 days of incubation of bone marrow with GM-CSF, the dendritic cells were harvested. This process was carried out in a tissue culture hood. The contents of the flasks were poured into centrifuge tubes to ensure collection of floating DCs. Approximately 10 mls of cooled phosphate buffered saline (PBS) was added to each empty flask, the flasks gently agitated and the contents collected. […] The collected contents of the flasks were centrifuged for 5 minutes at 200 g and the pellet resuspended in 2 mls of DC medium without GM-CSF. A cell count was then carried out.
Cells were counted using a haemocytometer. Approximately 20 μl of the resuspended cells was pipetted into the chamber of the haemocytometer, the cells were adjusted to the correct cell concentration (approx. 5×10^4, and not less than 1×10^4, per well) and then plated out for assay.
The plates were incubated overnight at 37° C. with 5% CO2 and allowed to settle (harvesting stimulates them). The next day the compounds (50 μg/ml and 20 μg/ml) and controls were added then again incubated at 37° C. with 5% CO2 for 24 hrs (or 48 hrs). Harvesting and addition of the compounds was all done in a hood. The plates were then frozen to kill the cells and once defrosted the supernatant analysed as described below.
Using an enzyme linked immunosorbent assay (ELISA) IL-12 concentration in the supernatants was measured. All reagents used in this assay were from PharMingen. A 96-well flat-bottomed ELISA plate was coated with purified rat anti-mouse IL-12 (p40/p70) MAb (Cat no. 554478) at 2 μg/ml diluted in PBS pH 9.0 at 50 μl/well. The plate was then covered in cling film and incubated at 4° C. Following incubation the plate was washed 3 times in washing buffer and dried. 200 μl of blocking buffer (10% foetal calf serum in PBS pH 7.0) was added to each well then covered in cling film and incubated at 37° C. for 45 minutes. The plate was washed 3 times and dried. Recombinant mouse Il-12 standard was added at 30 μl in duplicate wells, starting at 10 ng/ml then 5, 2.5, 1.25, 0.625, 0.31, 0.156, 0.078, 0.039, 0.020, 0.010, 0.005 ng/ml. Standards were diluted in blocking buffer. The supernatant samples were added in at 50 μl/well. The plate was then covered in cling film and incubated for 2 hours at 37° C. The plate was then washed 4 times, dried and the secondary antibody added.
Biotin labelled anti-mouse IL-12 (p40/p70) MAb (Cat no. 18482D) at 1 μg/ml (diluted in blocking buffer) was added to each well at a volume of 100 μl/well. The plate was covered in cling film and incubated at 37° C. for 1 hour. The plate was then washed 5 times, dried and the conjugate added. Streptavidin-AKP (Cat no. 13043E) at 100 μl/well was added at a dilution of 1/2000 in blocking buffer followed by incubation under cling film at 37° C. for 45 minutes.
The plate was finally washed 6 times, dried and the substrate added. pNPP (Sigma) in glycine buffer at 1 mg/ml was added at 100 μl/well. The plate was then covered in tinfoil, incubated at 37° C. and checked every 30 minutes for a colour change.
The plate was then read at 405 nm using a SPECTRAmax 190 spectrometer.

[6] = tested on: MCF-7 cells; assay: Effect on glycosylation of breast cancer cells; type: cell-based; conditions: MCF-7, 0.75 mM; difference from untreated cells at the 62 and 86 hour time points
Protocol: MCF-7 cells (European Collection of Cell Cultures Ref. 86012803) were taken from liquid nitrogen stock, thawed at room temperature and transferred to 10 ml Dulbeccos Modified Eagle's Medium with Hams F12, 15 mM Hepes and L-glutamine (DMEM: Cambrex Cat. No. BE12-719F) supplemented with 10% v/v foetal calf serum (FCS: BioWest Labs Cat. No. S02755, Lot. No. S1800). The FCS was pre-filtered through a 0.2 μm steril filter.
The cells were then centrifuged at 1,500 rpm in a Centaur bench-top centrifuge and the supernatant removed. The cells were reconstituted in fresh media and seeded into two T75 cm^3 Nunclon tissue culture flasks and allowed to settle overnight at 37° C. in a 5% CO2 incubator. The flasks were wrapped in cling film to prevent cross-contamination and the following day the media was changed to include the antibiotics penicillin and streptomycin as a precautionary measure against infection (at concentrations of 1 mg/cm^3 and 5 mg/cm^3, respectively). […]
The cells were harvested using a non-enzymatic method. At each of the time points the cells were viewed under the inverted light microscope and the morphology evaluated. […] The number of cells was then counted in a haemocytometer and cell viability evaluated by mixing 0.1 cm^3 of each cell suspension with a drop of trypan blue solution. […]
Evaluated using the BioRad protein assay according to the manufacturer's instructions. […]

[7] = tested on: β-D-galactosidase; assay: Glycosidase inhibition, β-D-galactosidase; type: biochemical, Bovine liver; conditions: 1 mg/ml; second galactosidase line
Protocol: as §1, §2

[8] = tested on: β-D-glucosidase; assay: Glycosidase inhibition, β-D-glucosidase; type: biochemical, Almonds (Prunus sp.)
Protocol: as §1, §2

[9] = tested on: N-acetyl-β-D-glucosaminidase; assay: Glycosidase inhibition, N-acetyl-β-D-glucosaminidase; type: biochemical, Bovine kidney; conditions: 1 mg/ml
Protocol: as §1, §2

[10] = target: T1, rabbit small intestine sucrase (Oryctolagus cuniculus, UniProt P07768); assay: Inhibition of rabbit small intestine sucrase; type: biochemical; conditions: at a concentration of 700 μM
T1 construct: from tissue; host or cells: rabbit small intestine

[11] = tested on: Naringinase; assay: Glycosidase inhibition, Naringinase; type: biochemical, Penecillium decumbens; conditions: 1 mg/ml
Protocol: as §1, §2

[12] = target: rabbit gut mucosa α-D-glucosidase; assay: Inhibition of rabbit gut mucosa α-D-glucosidase; type: biochemical

T1 sequence (P07768 whole entry): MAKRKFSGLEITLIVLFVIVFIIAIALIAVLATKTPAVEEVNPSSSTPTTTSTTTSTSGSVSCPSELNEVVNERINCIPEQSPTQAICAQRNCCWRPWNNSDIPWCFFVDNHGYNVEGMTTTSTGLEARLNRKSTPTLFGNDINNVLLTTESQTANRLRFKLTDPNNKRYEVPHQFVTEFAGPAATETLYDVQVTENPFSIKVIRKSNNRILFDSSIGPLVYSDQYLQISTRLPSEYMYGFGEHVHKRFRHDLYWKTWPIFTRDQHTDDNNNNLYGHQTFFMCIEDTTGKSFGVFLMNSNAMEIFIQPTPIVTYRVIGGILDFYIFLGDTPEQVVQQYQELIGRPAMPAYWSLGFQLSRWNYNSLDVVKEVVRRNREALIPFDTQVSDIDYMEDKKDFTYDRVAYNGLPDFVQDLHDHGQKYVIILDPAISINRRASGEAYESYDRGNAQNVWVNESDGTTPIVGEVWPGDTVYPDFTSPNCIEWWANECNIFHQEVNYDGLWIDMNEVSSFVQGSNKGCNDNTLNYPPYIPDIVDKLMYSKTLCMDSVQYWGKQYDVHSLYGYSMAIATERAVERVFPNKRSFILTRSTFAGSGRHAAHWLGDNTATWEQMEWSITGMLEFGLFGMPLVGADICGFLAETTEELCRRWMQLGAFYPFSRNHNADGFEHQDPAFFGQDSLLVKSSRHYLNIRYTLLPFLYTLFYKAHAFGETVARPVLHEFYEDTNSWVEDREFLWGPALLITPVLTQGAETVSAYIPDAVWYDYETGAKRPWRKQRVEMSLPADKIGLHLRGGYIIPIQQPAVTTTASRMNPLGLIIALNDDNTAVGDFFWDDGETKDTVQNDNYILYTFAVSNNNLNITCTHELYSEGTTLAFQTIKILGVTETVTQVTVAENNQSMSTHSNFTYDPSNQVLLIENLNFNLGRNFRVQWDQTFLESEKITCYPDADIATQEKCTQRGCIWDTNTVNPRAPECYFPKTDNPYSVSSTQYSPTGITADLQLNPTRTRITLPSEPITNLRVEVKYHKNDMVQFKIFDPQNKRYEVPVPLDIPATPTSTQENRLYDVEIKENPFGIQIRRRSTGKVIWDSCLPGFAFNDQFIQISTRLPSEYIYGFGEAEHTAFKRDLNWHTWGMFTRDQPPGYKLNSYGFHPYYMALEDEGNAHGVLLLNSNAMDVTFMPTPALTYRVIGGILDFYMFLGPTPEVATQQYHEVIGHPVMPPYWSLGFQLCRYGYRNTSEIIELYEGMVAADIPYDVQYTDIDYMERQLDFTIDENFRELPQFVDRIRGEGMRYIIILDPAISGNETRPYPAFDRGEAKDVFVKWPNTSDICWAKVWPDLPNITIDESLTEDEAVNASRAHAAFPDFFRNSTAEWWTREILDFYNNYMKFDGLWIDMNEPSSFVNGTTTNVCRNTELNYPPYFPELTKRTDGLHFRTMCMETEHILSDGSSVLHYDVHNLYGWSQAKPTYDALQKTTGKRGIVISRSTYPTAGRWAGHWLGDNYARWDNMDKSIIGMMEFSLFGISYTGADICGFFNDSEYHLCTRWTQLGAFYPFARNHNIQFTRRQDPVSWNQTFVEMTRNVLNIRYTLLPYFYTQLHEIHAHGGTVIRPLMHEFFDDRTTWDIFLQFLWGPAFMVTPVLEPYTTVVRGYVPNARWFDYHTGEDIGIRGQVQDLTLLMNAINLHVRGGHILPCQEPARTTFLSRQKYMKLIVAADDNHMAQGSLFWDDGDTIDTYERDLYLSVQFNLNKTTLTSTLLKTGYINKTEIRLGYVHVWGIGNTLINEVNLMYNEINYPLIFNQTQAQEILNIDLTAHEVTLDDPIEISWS

OC[C@@H]1[C@@H](O)[C@H](O)[C@H]2[C@H](O)[C@@H](O)CN21 [casuarine (8), (1R,2R,3R,6S,7S,7aR)-3-(hydroxymethyl)-1,2,6,7-tetrahydroxypyrrolizidine]
ear thickness response [1]: produced a reduction in ear thickness | Glucose uptake ([2]; initial rate, control 240): 265 pmol/s/mg | glucose transport ([2]; result in words): slightly stimulated | % inhibition gluc (Bacillus) [3]: 86% | Metastatic morphology [4]: Metastasis restricted to apical tip of lung | IL-12 RELEASE [5]: Yes | glycan synthesis and/or N-linked glycosylation in breast cancer cells [6]: can inhibit glycan synthesis and/or N-linked glycosylation | % inhibition galactosidase [7]: 0% | % inhibition glucosidase ([8]; 1 mg/ml): 0% | inhibition of almond 6-D-glucosidase ([8]; at 800 μM): not being inhibitory | % inhibition N-acetyl-β-gluc [9]: 14% | inhibition of rabbit small intestine sucrase [10]: inhibited | % inhibition Naringinase [11]: −2% | IC50 [12]: 210 µM
